Data set [1] has as its system P. berghei liver stage (PbLuc). Nature of the data set: P. berghei luciferase liver stage (PbLuc) assay in HepG2-A16-CD81 hepatocytes. Format: cell-based, Plasmodium berghei. The following applies: Plasmodium berghei; for IC50: HepG2-A16-CD81, 12pt dose response, read-out: PbLuc 12pt dose response: IC50; for Emax: HepG2-A16-CD81, 48 h, 12pt dose response, maximum inhibition.

The target in data set [2] is recombinant firefly luciferase (Photinus pyralis, UniProt P08659). Put plainly: biochemical. The following applies: dose response; for Emax: maximum inhibition, read-out: rLuc inhibition dose response: Maximum inhibition (%); for IC50: read-out: rLuc inhibition dose response: IC50.
Data set [3] is described as follows: HepG2 cytotoxicity screening (CellTiter-Glo). Conditions: human, uninfected HepG2-A16-CD81 (EGFP) hepatocytes.
Data set [4] concerns HepG2-A16-CD81 hepatocytes. Put plainly: HepG2 cytotoxicity screening (CellTiter-Glo). Conditions: for HepG2 cytotoxicity 12pt dose response: Maximum inhibition (%): 12pt dose response.

Structures are written as SMILES. Some results are limits rather than exact numbers.

Sequence of recombinant firefly luciferase (P08659 whole entry): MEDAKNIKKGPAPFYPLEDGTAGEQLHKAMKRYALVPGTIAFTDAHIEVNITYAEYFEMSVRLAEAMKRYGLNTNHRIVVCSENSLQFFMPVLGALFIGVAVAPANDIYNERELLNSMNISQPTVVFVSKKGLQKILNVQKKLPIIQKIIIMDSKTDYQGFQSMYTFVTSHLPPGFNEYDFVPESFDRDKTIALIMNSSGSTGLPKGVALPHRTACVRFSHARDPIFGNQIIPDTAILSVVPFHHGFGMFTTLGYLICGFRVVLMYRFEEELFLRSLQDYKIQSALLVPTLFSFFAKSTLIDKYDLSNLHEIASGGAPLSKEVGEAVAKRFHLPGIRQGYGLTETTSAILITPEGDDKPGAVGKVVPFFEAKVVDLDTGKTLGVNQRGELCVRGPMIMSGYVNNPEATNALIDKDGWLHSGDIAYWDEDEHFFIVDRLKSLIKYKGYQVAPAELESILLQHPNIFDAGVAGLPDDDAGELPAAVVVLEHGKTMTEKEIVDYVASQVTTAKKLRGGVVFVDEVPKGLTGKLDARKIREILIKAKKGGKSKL

Regarding `Cc1nc(NC(=O)c2c(-n3cnnn3)sc3c2CCCC3)sc1C` [UCSD-0786506], in data set [1], the IC50 came to 0.253 µM and the Emax was found to be 88.6%. Further, in data set [2], the Emax was 15% and the IC50 was over 50 µM. Also, in data set [3], the IC50 was over 50 µM and the inhibition at 2 µM amounted to 10.9%. Further, the “HepG2 cytotoxicity 12pt dose response: Maximum inhibition (%)” value in data set [4] was found to be 4.09%.

Consider `Cc1nc(NC(=O)c2c(-n3cnnn3)sc(C)c2C)sc1C` [UCSD-0786548], for which the IC50 was 0.0144 µM in data set [1], over 25 µM in data set [2] and over 25 µM in data set [3]. Besides, the Emax in data set [2] amounted to 1.63%. Besides, the inhibition at 2 µM in data set [3] was 4.63%. In addition, the “HepG2 cytotoxicity 12pt dose response: Maximum inhibition (%)” value in data set [4] stood at 8.84%.

With `CC(C)Cn1ccc2c(NC(=O)c3n[nH]c4c3CCC4)cccc21` [UCSD-0786893], the half-maximal inhibitory concentration (IC50) in data set [1] is 13.6 µM. In data set [2], the Emax turned out to be 38.5% and the IC50 was over 25 µM. This molecule gave an IC50 in data set [3] of over 25 µM. In data set [4], the “HepG2 Cytotoxicity primary screen (2uM): % Inhibition” value came out at 3.16% and the “HepG2 cytotoxicity 12pt dose response: Maximum inhibition (%)” value is recorded as 32.3%.

On to `CCCc1cc(=O)[nH]c(-n2nc(C3CC3)cc2N)n1` [UCSD-0786964], for which the IC50 in data set [1] is 4.69 µM. For the same molecule, in data set [2], the Emax was found to be 12.2% and the IC50 was over 25 µM. Besides, in data set [3], the IC50 was 20.5 µM and the inhibition at 2 µM was -26.2%. For the same molecule, the “HepG2 cytotoxicity 12pt dose response: Maximum inhibition (%)” value in data set [4] worked out at 75.4%.

Consider `CC(C)c1cc(=O)[nH]c(-n2nc(C3CC3)cc2N)n1` [UCSD-0786965], for which, in data set [1], the IC50 stood at 1.61 µM and the Emax stood at 83%. For the same molecule, in data set [2], the Emax stood at 1.26% and the IC50 was over 25 µM. Moreover, in data set [3], the IC50 was 18.9 µM and the inhibition at 2 µM was 3.79%. The “HepG2 cytotoxicity 12pt dose response: Maximum inhibition (%)” value in data set [4] came to 73.6%.

`Cc1cc(NC(=O)C(C)C)n(-c2nc(C)c(C)c(=O)[nH]2)n1` [UCSD-0786977]: the IC50 in data set [1] is 0.129 µM; in data set [2], over 50 µM; in data set [3], over 25 µM. The Emax in data set [1] is 100%; in data set [2] it was 12.4%. Further, the “HepG2 cytotoxicity 12pt dose response: Maximum inhibition (%)” value in data set [4] is reported as 36.8%.

In the case of `Cc1cc(C(=O)N2CCN(c3nc4c(C(C)C)cccc4s3)CC2)no1` [UCSD-0787009], the IC50 in data set [1] is 0.822 µM; in data set [2], over 50 µM; in data set [3], over 25 µM. The figures for the Emax in data set [1] and in data set [2] were 98.9% and 34.2%, respectively. The “HepG2 cytotoxicity 12pt dose response: Maximum inhibition (%)” value in data set [4] is on record as 1.29%.

Take `Cc1cc(C(=O)N2CCN(c3nc4c(C(C)C)cccc4s3)CC2)on1` [UCSD-0787150]: the half-maximal inhibitory concentration (IC50) was 4 µM in data set [1], over 50 µM in data set [2] and over 25 µM in data set [3]. The figures for the Emax in data set [1] and in data set [2] were 101% and 11.6%, respectively. Besides, the “HepG2 cytotoxicity 12pt dose response: Maximum inhibition (%)” value in data set [4] is 21.7%.

In the case of `CCc1cc(=O)[nH]c(-n2nc(C3CC3)cc2NC(=O)C2CC2)n1` [UCSD-0787226], the IC50 in data set [1] is 0.35 µM; in data set [2] it was over 25 µM; in data set [3], over 25 µM. The Emax in data set [1] turned out to be 92.4%; in data set [2], 8.54%. Besides, the inhibition at 2 µM in data set [3] was -1.99%. Also, in data set [4], the “HepG2 cytotoxicity 12pt dose response: Maximum inhibition (%)” value is 54%.

On to `CCc1c(C)nc(-n2nc(C3CC3)cc2NC(C)=O)[nH]c1=O` [UCSD-0787229], for which the IC50 in data set [1] was 0.0826 µM; in data set [2], over 50 µM; in data set [3] it was over 25 µM. Moreover, the results for the Emax in data set [1] and in data set [2] were 97.2% and 16.1%, respectively. Besides, the “HepG2 cytotoxicity 12pt dose response: Maximum inhibition (%)” value in data set [4] was 3.74%.

Take `O=S(=O)(c1ccc(Cl)s1)N1CCN(Cc2nc(-c3ccco3)cs2)CC1` [UCSD-0787251]: the IC50 in data set [1] was 11 µM; in data set [2] it was over 25 µM; in data set [3], 22 µM. Also, the Emax in data set [1] was determined as 93.6%; in data set [2] it was 13.6%. In data set [4], the “HepG2 Cytotoxicity primary screen (2uM): % Inhibition” value stood at 12.14%. In addition, in data set [4], the “HepG2 cytotoxicity 12pt dose response: Maximum inhibition (%)” value is 65.6%.

On to `CC(C)(C)NC(=O)N1CCC(Oc2ccc(C(F)(F)F)cn2)CC1` [UCSD-0787817], for which the IC50 in data set [1] is 11.4 µM; in data set [2], over 25 µM; in data set [3], over 25 µM. Moreover, the figures for the Emax in data set [1] and in data set [2] were 93.5% and 13%, respectively. Also, the “HepG2 Cytotoxicity primary screen (2uM): % Inhibition” value in data set [4] is -4.73%. Also, the “HepG2 cytotoxicity 12pt dose response: Maximum inhibition (%)” value in data set [4] turned out to be 16.5%.

As to `CCOc1ccc(S(=O)(=O)Nc2cnc(OC)nc2OC)cc1` [UCSD-0788088], in data set [1], the IC50 is 5.14 µM and the Emax came out at 71.2%. Moreover, in data set [2], the Emax is -1.04% and the IC50 is over 25 µM. Besides, in data set [3], the IC50 is over 25 µM and the inhibition at 2 µM turned out to be 4.64%. In data set [4], the “HepG2 cytotoxicity 12pt dose response: Maximum inhibition (%)” value is reported as 61%.

With `COc1cccc(CN2CCc3nc(C(=O)NCC(C)C)sc3CC2)c1` [UCSD-0790206], the IC50 is 9.85 µM in data set [1], over 25 µM in data set [2] and over 25 µM in data set [3]. For the same molecule, the Emax in data set [2] was determined as 32%. The “HepG2 Cytotoxicity primary screen (2uM): % Inhibition” value in data set [4] is -10.23%. Besides, in data set [4], the “HepG2 cytotoxicity 12pt dose response: Maximum inhibition (%)” value is listed as 35.9%.

For the molecule `O=C([C@H]1C[C@@H]2CCN(c3cccc(F)c3)C[C@H]2O1)N1CCCC1` [UCSD-0792262], the half-inhibitory concentration (IC50) in data set [1] was 10.3 µM; in data set [2], over 25 µM; in data set [3], over 25 µM. Further, the Emax in data set [1] came out at 93.8%; in data set [2] it was 28.4%. Moreover, the “HepG2 Cytotoxicity primary screen (2uM): % Inhibition” value in data set [4] was determined as 4.38%.

With `O=C(NCCCN1CCCCC1)c1ccc(-n2ccc3ccccc32)s1` [UCSD-0795001], in data set [1], the IC50 was determined as 11.6 µM and the Emax came to 116%. Further, in data set [2], the Emax is -4.22% and the IC50 was over 25 µM. This molecule registered an IC50 in data set [3] of 22.1 µM. In data set [4], the “HepG2 Cytotoxicity primary screen (2uM): % Inhibition” value is listed as 0.00% and the “HepG2 cytotoxicity 12pt dose response: Maximum inhibition (%)” value is 66.1%.

On to `CCS(=O)(=O)N1CCc2ccc(NC(=O)Nc3cccc(SC)c3)cc21` [UCSD-0795016], for which, in data set [1], the IC50 is 1.38 µM and the Emax turned out to be 98.9%. In addition, in data set [2], the Emax was 12.2% and the IC50 is over 25 µM. In addition, in data set [3], the midpoint of inhibition, the IC50, lay at 3.39 µM and the inhibition at 2 µM turned out to be 0%. Besides, the “HepG2 cytotoxicity 12pt dose response: Maximum inhibition (%)” value in data set [4] is 54%.

`Cc1[nH]/c(=N\C(=O)c2csc(NCC(C)C)n2)sc1C` [UCSD-0795190]: the values for the IC50 in data set [1], in data set [2] and in data set [3] were 8.85 µM, 9.64 µM and over 25 µM, respectively. Moreover, the Emax amounted to 84.4% in data set [1] and 77% in data set [2]. Besides, the inhibition at 2 µM in data set [3] was 0%. In addition, the “HepG2 cytotoxicity 12pt dose response: Maximum inhibition (%)” value in data set [4] was 42.7%.

`CC(=O)Nc1ccc(-n2ccc3nc(N4CCCC4)ncc3c2=O)cc1` [UCSD-0795240]: in data set [1], the IC50 was 4.11 µM and the Emax came out at 100%. In data set [2], the Emax is -8.22% and the IC50 is over 25 µM. For the same molecule, in data set [3], the IC50 was over 25 µM and the inhibition at 2 µM was 0%. Further, the “HepG2 cytotoxicity 12pt dose response: Maximum inhibition (%)” value in data set [4] is on record as 8.78%.

In the case of `Cc1ccc(N(CC(=O)c2ccc(Br)cc2)C2=NCCCCC2)cc1` [UCSD-0795313], in data set [1], the IC50 came to 13.6 µM and the Emax was found to be 93.4%. Also, in data set [2], the Emax turned out to be 7.66% and the IC50 was over 25 µM. The IC50 in data set [3] was over 25 µM. For the same molecule, in data set [4], the “HepG2 Cytotoxicity primary screen (2uM): % Inhibition” value is 0.00% and the “HepG2 cytotoxicity 12pt dose response: Maximum inhibition (%)” value stood at 28.6%.

As to `COCCCNC1N=C(n2nc(C)cc2C)Nc2sc3c(c21)CCCC3` (stereo not drawn) [UCSD-0796603], in data set [1], the IC50 was found to be 4.36 µM and the Emax was 98.7%. Further, in data set [2], the Emax worked out at 17.3% and the IC50 was over 25 µM. This molecule also came in with an IC50 in data set [3] of over 25 µM. Also, in data set [4], the “HepG2 Cytotoxicity primary screen (2uM): % Inhibition” value is 2.66% and the “HepG2 cytotoxicity 12pt dose response: Maximum inhibition (%)” value was -1.93%.

In the case of `CC(=O)Nc1ncc(S(=O)(=O)Nc2ccc3c(c2)OCCO3)s1` [UCSD-0796805], in data set [1], the IC50 turned out to be 9.83 µM and the Emax amounted to 92%. In data set [2], the Emax came out at 52.2% and the IC50 was over 25 µM. This molecule registered an IC50 in data set [3] of over 25 µM. For the same molecule, in data set [4], the “HepG2 Cytotoxicity primary screen (2uM): % Inhibition” value is -2.36% and the “HepG2 cytotoxicity 12pt dose response: Maximum inhibition (%)” value is on record as 4.04%.

As for `CCC1=NC(SCC(=O)c2ccccc2)c2cc(CC)sc2N1` (stereo not drawn) [UCSD-0796974], in data set [1], the IC50 is over 25 µM and the Emax is 42.1%. In addition, in data set [2], the Emax was 7.45% and the IC50 is over 25 µM. Further, in data set [3], the IC50 was over 25 µM and the inhibition at 2 µM turned out to be 3.26%. Moreover, the “HepG2 cytotoxicity 12pt dose response: Maximum inhibition (%)” value in data set [4] is given as 3.82%.

Turning to `Cc1cccc(Nc2cc(C3CCCN(CC(N)=O)C3)ccn2)n1` (stereo not drawn) [UCSD-0798772], the IC50 in data set [1] was under 0.000141 µM; in data set [2], over 8.33 µM; in data set [3], over 25 µM. Moreover, the Emax in data set [1] was determined as 89.4%. Besides, the inhibition at 2 µM in data set [3] was found to be 1.68%. The “HepG2 cytotoxicity 12pt dose response: Maximum inhibition (%)” value in data set [4] is 3.72%.

For the molecule `CCOc1ccc(CN2CCCC(c3cc4ncccc4[nH]3)C2)cc1` (stereo not drawn) [UCSD-0798855], in data set [1], the IC50 was 5.76 µM and the Emax turned out to be 90.3%. In data set [2], the Emax was found to be 20.7% and the IC50 was over 25 µM. Besides, in data set [3], the IC50 is over 25 µM and the inhibition at 2 µM was 9.74%. In data set [4], the “HepG2 cytotoxicity 12pt dose response: Maximum inhibition (%)” value is 11.6%.

The values are drawn from paper PMC7155171, “Probing the Open Global Health Chemical Diversity Library for Multistage-Active Starting Points for Next-Generation Antimalarials” (ACS Infectious Diseases, 2020).
